Laboratory results from US6555375B1, “Methods for somatic embryo formation and plant regeneration of Beta vulgaris” (priority 2000, dated 2003).

Experiments:
[1] = system: sugar beet seedling tissues (hypocotyls, cotyledons); assay: Callus induction from sugar beet seedling explants on MS medium with cytokinin; assay type: cell-based, Beta vulgaris
Protocol: Seeds from three sugar beet lines ACH199 (triploid), ACH31 (triploid) and ACH203 (diploid) were obtained from Crystal and Maribo Beet Seed, Moorehead, Minn. USA. To remove seed covers, Beta vulgaris seeds were soaked in the tap water overnight and then washed under water flow. Seeds were sterilized by sequential treatment with 70% (v/v) ethanol (1 min.), 0.1% (w/v) mercuric chloride (10 min.) and 10% (v/v) household laundry bleach (20 min.) followed by four washes with sterile distilled water. Seeds were then dried on sterile filter paper. All steps were performed in a laminar flow hood.
A series of media which included additional supplements were used for callus induction, embryo proliferation and shoot formation. Phytohormones (BAP, TDZ, NAA, IAA, 2,4-D) were added to the media before autoclaving (120° C. for 20 min.). The basal medium for callus induction and embryogenesis is MS medium comprising MS basal salts, 3% sucrose, 100 mg/L myo-inositol, 0.5 mg/L nicotinic acid, 0.5 mg/L pyridoxine-HCl, 1 mg/L thiamine-HCl and 0.8% (w/v) Difco agar. The basal medium for proliferation of repetitive embryos is MSE (MS basal salts, 100 mg/L myo-inositol, 0.5 mg/L nicotinic acid, 0.5 mg/L pyridoxine-HCl, 1 mg/L thiamine-HCl).
Petri dishes (100 mm×25 mm) containing 25 mL of medium were used for all experiments. Seeds were placed on MS medium, containing either BAP 2 mg/L or TDZ 1 mg/L; plates were sealed and placed in the dark place at 21° C. Cotyledons and hypocotyls (FIG. 1A) were excised from two-week-old seedlings, cut into several pieces, incised and placed on callus induction medium (MS medium supplemented with either 2 mg/L of BAP or 1 mg/l of TDZ). Plates were incubated in the dark at 21° C. Four weeks later, when explants were necrotic and dark brown, colonies of white friable callus appeared on the explant surface (FIG. 1B). Most of the callus formed on hypocotyls. Only a few colonies were found on cotyledons.

[2] = system: sugar beet somatic embryos; assay: Germination of primary somatic embryos on MS medium containing cytokinin; assay type: cell-based, Beta vulgaris
Protocol: The embryos germinated quickly when transferred to fresh medium either supplemented with phytohormones or not. […] These embedded tissues were manually isolated, separated and transferred into liquid medium (MS medium+BAP 0.2 mg/L). The cultures were maintained at constant agitation (100 rpm) in the dark with biweekly changes of the medium. The white embryogenic tissue masses expanded in two weeks and snow-white fresh outgrowths formed on the surface of older tissues (FIG. 2B). Clumps of white embryogenic tissue masses were divided and transferred to fresh medium for further proliferation. A couple of such passages was enough to generate a large number of white clumps. Part of these tissues was used for the optimization of culture medium.

[3] = system: embryogenic tissue masses of sugar beet; assay: Repetitive embryogenic culture: optimization of proliferation medium; assay type: cell-based, Beta vulgaris; conditions: for Effect of media on repetitive embryogenic culture (description) / white embryos or white clumps, share of tissues: IV. MSE, sucrose 6%, glycine 2 mg/L, pH 5.7
Protocol: These embedded tissues were manually isolated, separated and transferred into liquid medium (MS medium+BAP 0.2 mg/L). The cultures were maintained at constant agitation (100 rpm) in the dark with biweekly changes of the medium. […] Clumps of white embryogenic tissue masses were divided and transferred to fresh medium for further proliferation. […] Part of these tissues was used for the optimization of culture medium.
The optimization of proliferation medium was conducted through several stages. Each stage lasted for two weeks.

[4] = system: friable callus of sugar beet; assay: Shoot/plant regeneration from friable callus; assay type: cell-based, Beta vulgaris
Protocol: For regeneration of embryos, friable callus was transferred to callus regeneration medium (MS medium supplemented with either 1 mg/L of BAP or 1 mg/L of TDZ). The cultures were incubated at 25° C. under a photoperiod of 16 hours of light of cool, white light at an intensity of 30 μmol m^−2s^−1 followed by a 8 hours of darkness. Callus began to grow vigorously, and by the end of the second week, it was possible to distinguish several callus types as well as small embryos (FIG. 1C). Since every seedling was treated as a separate line, quantitative analysis can be applied to the results of the experiments.
All explants of one type from the same line (i.e. only hypocotyls) were able to produce callus, if any did. At the same time, there were only a few cases where callus formed from both cotyledons and hypocotyls of the same seedling (twice in ACH31 and four times in ACH203).

[5] = system: callus; conditions: Nielson et al. (1995), Roussy et al. (1996); cited from earlier work
[6] = system: secondary somatic embryos of sugar beet; assay: Regeneration of secondary somatic embryos, adventitious shoot formation; assay type: cell-based, Beta vulgaris
Source text: Somatic embryos produced as described in Example 3 started to germinate as soon as they were transferred to a medium comprising MS basal salts, 3% sucrose and either BAP or TDZ under light. Regeneration began with green or red coloration of an embryo accompanied by formation of primary leaves and roots (FIG. 2C). Since the regeneration medium contained cytokinins, the primary roots were reduced while the shoots developed (FIG. 2D).
To select the best medium for embryo germination, a series of concentrations of BAP and TDZ was tested. The phenotypic effect of applied phytohormones was estimated after three weeks (FIG. 3).

Compound: O=C(Nc1ccccc1)Nc1cnns1 [TDZ, thidiazuron]
- production of friable callus and shoots, and plants therefrom: callus induction medium comprising TDZ versus BAP [1]: superior
- increase of friable callus formation from hypocotyls, TDZ compared with BAP ([1]; ACH31): two-fold
- %A: number of lines producing callus/total number of lines × 100 ([1]; Cultivar ACH31, Cotyledons): 0%
- # of lines produced callus ([1]; Cultivar ACH31, Cotyledons, MS + BAP 2 mg/L or TDZ 1 mg/L): 0
- %A: number of lines producing callus/total number of lines × 100 ([1]; Cultivar ACH31, Hypocotyls, MS + BAP 2 mg/L or TDZ 1 mg/L): 45%
- # of lines produced callus ([1]; Cultivar ACH31, Hypocotyls, MS + BAP 2 mg/L or TDZ 1 mg/L, dark 21° C.): 50
- %A: number of lines producing callus/total number of lines × 100 ([1]; Cultivar ACH203, Cotyledons): 0%
- # of lines produced callus ([1]; Cultivar ACH203, Cotyledons, MS + BAP 2 mg/L or TDZ 1 mg/L): 0
- %A: number of lines producing callus/total number of lines × 100 ([1]; Cultivar ACH203, Hypocotyls): 43%
- # of lines produced callus ([1]; Cultivar ACH203, Hypocotyls, MS + BAP 2 mg/L or TDZ 1 mg/L): 100
- callus initiation from cotyledons, TDZ compared with BAP ([1]; cotyledons): no TDZ-related improvements
- callus formation and plant regeneration, TDZ compared with BAP ([1]; hypocotyls of cultivar ACH203): provided similar results
- rate of callus formation from hypocotyls and plant regeneration from such callus, TDZ compared with BAP ([1]; two out of three cultivars tested): dramatically increased
- phenotype of embryos transferred to MS medium containing BAP or TDZ [2]: formed multiple shoots but also retained white embryogenic tissues
- necrosis [3]: did not cause necrosis
- tissue proliferation and anthocyanin production [3]: very quick proliferation of tissue and intensified production of anthocyanins
- Effect of media on repetitive embryogenic culture (description) ([3]; phytohormone 0.05 mg/L): Vigorously expanded dark red culture
- white embryos or white clumps, share of tissues ([3]; phytohormone 0.05 mg/L): 20%
- Effect of media on repetitive embryogenic culture (description) ([3]; phytohormone 0.1 mg/L): Vigorously expanded dark red culture
- white embryos or white clumps, share of tissues ([3]; phytohormone 0.1 mg/L): 20%
- Effect of media on repetitive embryogenic culture (description) ([3]; phytohormone 1 mg/L): Vigorously expanded dark red culture, no white embryos
- effect on embryogenic tissues during medium optimization ([3]; indicated by vigorous growth, red coloration, absence of embryogenic tissue masses): induced the regeneration of embryos
- increase of plant regeneration from these calli, TDZ compared with BAP ([4]; ACH31, hypocotyl callus): nine-fold
- # of lines produced shoots ([4]; Cultivar ACH31, Cotyledons): 0
- %B: number of lines producing callus and regenerating/total number of lines × 100 ([4]; Cultivar ACH31, Cotyledons): 0%
- %B: number of lines producing callus and regenerating/total number of lines × 100 ([4]; Cultivar ACH31, Hypocotyls): 9%
- # of lines produced shoots ([4]; Cultivar ACH31, Hypocotyls, regeneration medium MS + 1 mg/L BAP or TDZ): 10
- # of lines produced shoots ([4]; Cultivar ACH203, Cotyledons): 0
- %B: number of lines producing callus and regenerating/total number of lines × 100 ([4]; Cultivar ACH203, Cotyledons): 0%
- # of lines produced shoots ([4]; Cultivar ACH203, Hypocotyls): 40
- %B: number of lines producing callus and regenerating/total number of lines × 100 ([4]; Cultivar ACH203, Hypocotyls): 17%
- callus-inducing effectiveness [5]: more effective callus-inducing agent than BAP
- adventitious shoot formation ([6]; TDZ at 0.03 mg/L, concentrations tested 0.03, 0.1, 0.3, 1 and 3 mg/l, after three weeks): most effective
- inducing the formation of adventitious shoots on Beta vulgaris embryos ([6]; compared with BAP): superior to BAP
- regeneration, particularly shoot development on Beta vulgaris embryos ([6]; compared with BAP): superior to BAP
- vitrification of tissues ([6]; concentrations higher than 0.03 mg/L): caused vitrification of tissues
- vitrification of tissues and adventitious shoots ([6]; low concentrations): did not cause vitrification of tissues while producing more adventitious shoots
